Results reported in ChEMBL document CHEMBL5465560, “Selectivity Literature for EUbOPEN Chemogenomic Library” (2024).
Values belong to the compound of their own block, whether it stands above or below them.

Tests used:
[1] = target: Mitogen-activated protein kinase kinase kinase 20 (Homo sapiens) (UniProt Q9NYL2); experiment: Selectivity interaction (Ambit KINOMEscan and KiNATiv profiling in Jurkat cells) EUB0000090b MAP3K20; type: cell-based; conditions: at 1 µM
[2] = target: Cyclin-dependent kinase 2 (Homo sapiens, UniProt P24941); experiment: Selectivity interaction (ActivX KiNativ screen (kinase selectivity in THP-1 cell lysates)) EUB0000639a CDK2; type: subcellular; conditions: lysate, at 5 µM
[3] = target: T1, Histone-arginine methyltransferase CARM1 (Homo sapiens) (UniProt Q86X55); conditions: KMS-28BM, at 3 µM
T1 sequence (whole entry): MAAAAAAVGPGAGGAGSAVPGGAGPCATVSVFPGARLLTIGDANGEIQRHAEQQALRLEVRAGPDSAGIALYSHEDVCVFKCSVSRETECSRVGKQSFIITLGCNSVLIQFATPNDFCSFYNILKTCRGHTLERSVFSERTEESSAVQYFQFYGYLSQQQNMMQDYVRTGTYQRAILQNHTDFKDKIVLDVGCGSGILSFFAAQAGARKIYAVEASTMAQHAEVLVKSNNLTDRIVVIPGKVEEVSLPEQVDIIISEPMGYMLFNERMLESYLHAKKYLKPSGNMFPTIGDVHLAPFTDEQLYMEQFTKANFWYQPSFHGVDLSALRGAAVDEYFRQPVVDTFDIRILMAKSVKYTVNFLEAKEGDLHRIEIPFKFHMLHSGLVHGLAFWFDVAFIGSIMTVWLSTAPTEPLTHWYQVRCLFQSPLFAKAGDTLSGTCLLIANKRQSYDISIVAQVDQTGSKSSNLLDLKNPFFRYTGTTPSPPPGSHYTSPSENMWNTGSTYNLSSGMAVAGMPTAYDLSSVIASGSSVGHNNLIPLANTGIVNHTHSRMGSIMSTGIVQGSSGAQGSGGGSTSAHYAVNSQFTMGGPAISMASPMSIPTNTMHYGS

[4] = target: T2, Mitogen-activated protein kinase kinase kinase 2 (Homo sapiens) (UniProt Q9Y2U5); experiment: Selectivity interaction (LanthaScreen Eu Kinase Binding Assay) EUB0001632a MAP3K2; conditions: at 10 µM
T2 sequence (whole entry): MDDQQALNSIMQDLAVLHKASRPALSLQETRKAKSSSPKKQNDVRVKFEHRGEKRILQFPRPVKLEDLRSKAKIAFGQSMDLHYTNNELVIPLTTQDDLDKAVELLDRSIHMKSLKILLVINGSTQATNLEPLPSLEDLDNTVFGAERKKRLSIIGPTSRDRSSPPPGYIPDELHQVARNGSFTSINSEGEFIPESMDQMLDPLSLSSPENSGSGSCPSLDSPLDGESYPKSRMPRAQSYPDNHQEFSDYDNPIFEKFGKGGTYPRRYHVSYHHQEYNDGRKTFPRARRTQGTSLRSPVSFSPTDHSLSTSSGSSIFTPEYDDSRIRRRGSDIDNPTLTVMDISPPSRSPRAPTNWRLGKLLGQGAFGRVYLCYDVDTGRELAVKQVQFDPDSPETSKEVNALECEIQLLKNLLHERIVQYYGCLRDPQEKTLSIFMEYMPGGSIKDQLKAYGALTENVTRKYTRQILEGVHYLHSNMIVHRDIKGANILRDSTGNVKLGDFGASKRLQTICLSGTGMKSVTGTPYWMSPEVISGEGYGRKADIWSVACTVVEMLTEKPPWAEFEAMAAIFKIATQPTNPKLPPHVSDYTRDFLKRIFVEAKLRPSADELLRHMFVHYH

[5] = test system: Hepatocyte growth factor receptor (Homo sapiens), P08581 [M1250T]; conditions: at 10 µM
[6] = target: Dual specificity protein kinase CLK2 (Homo sapiens, UniProt P49760); experiment: Selectivity interaction (KinomeScan (DiscoverX)) EUB0000655a CLK2; conditions: at 10 µM
[7] = target: Serine/threonine-protein kinase 38-like (Homo sapiens) (UniProt Q9Y2H1); experiment: Selectivity interaction (ActivX KiNativ screen (ex vivo kinase selectivity in human PBMCs)) EUB0001619a STK38L; type: cell-based; conditions: PBMC, at 1 µM
[8] = target: T3, Mitogen-activated protein kinase kinase kinase 13 (Homo sapiens) (UniProt O43283); experiment: Selectivity interaction (KinomeScan (DiscoverX)) EUB0001619a MAP3K13; conditions: at 1 µM
T3 sequence (whole entry): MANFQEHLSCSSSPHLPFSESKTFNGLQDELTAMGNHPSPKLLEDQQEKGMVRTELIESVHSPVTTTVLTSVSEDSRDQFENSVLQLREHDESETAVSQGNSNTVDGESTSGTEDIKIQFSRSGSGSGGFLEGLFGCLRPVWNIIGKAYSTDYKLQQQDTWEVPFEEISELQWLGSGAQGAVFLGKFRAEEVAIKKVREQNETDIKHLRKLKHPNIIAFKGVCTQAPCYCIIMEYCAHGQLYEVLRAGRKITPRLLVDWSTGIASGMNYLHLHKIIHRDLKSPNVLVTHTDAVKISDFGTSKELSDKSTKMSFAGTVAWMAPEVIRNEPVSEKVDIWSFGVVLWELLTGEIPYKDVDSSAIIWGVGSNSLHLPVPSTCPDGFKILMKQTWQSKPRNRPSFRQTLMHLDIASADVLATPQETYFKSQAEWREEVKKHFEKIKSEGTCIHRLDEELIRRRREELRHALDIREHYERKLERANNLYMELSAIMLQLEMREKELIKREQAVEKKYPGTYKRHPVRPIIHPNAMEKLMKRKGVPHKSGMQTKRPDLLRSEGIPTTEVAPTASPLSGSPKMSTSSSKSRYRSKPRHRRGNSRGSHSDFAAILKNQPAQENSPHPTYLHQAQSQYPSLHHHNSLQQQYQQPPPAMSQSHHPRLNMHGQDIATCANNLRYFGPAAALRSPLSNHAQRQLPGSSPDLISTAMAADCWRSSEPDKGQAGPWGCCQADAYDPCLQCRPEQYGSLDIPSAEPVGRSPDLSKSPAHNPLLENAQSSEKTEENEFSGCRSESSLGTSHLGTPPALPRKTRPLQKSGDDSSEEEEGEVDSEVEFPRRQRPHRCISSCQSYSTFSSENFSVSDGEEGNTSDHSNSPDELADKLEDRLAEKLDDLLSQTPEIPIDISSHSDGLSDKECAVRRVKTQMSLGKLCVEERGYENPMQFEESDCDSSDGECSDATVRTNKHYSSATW

[9] = target: Fibroblast growth factor receptor 2 (Homo sapiens) (UniProt P21802); experiment: Selectivity interaction (SelectScreen profiling (Invitrogen)) EUB0000607a FGFR2; conditions: at 2 µM
Chain of Fibroblast growth factor receptor 2 (Homo sapiens) (P21802 22-821 limits assumed): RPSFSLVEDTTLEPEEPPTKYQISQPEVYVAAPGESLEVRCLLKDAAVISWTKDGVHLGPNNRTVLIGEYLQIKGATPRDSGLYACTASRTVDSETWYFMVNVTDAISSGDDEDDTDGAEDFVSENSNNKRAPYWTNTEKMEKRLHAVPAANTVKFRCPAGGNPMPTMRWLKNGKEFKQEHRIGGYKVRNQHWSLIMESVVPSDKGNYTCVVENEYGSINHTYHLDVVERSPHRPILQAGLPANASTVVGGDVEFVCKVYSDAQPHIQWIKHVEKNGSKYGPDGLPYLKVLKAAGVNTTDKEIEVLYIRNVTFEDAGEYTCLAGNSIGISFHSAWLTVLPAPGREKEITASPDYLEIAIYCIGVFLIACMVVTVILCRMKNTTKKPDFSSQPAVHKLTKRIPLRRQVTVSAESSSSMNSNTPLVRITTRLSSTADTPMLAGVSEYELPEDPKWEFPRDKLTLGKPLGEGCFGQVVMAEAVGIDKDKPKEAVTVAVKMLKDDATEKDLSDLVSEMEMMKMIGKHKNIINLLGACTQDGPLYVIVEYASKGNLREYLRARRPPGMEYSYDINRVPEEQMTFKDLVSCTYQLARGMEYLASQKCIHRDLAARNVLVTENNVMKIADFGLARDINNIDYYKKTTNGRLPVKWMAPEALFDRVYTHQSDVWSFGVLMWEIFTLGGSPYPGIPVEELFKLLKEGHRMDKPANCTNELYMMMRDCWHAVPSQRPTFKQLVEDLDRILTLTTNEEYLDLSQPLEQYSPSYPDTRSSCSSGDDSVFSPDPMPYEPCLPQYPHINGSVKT

Chain of Mitogen-activated protein kinase kinase kinase 20 (Homo sapiens) (Q9NYL2 2-800 limits assumed): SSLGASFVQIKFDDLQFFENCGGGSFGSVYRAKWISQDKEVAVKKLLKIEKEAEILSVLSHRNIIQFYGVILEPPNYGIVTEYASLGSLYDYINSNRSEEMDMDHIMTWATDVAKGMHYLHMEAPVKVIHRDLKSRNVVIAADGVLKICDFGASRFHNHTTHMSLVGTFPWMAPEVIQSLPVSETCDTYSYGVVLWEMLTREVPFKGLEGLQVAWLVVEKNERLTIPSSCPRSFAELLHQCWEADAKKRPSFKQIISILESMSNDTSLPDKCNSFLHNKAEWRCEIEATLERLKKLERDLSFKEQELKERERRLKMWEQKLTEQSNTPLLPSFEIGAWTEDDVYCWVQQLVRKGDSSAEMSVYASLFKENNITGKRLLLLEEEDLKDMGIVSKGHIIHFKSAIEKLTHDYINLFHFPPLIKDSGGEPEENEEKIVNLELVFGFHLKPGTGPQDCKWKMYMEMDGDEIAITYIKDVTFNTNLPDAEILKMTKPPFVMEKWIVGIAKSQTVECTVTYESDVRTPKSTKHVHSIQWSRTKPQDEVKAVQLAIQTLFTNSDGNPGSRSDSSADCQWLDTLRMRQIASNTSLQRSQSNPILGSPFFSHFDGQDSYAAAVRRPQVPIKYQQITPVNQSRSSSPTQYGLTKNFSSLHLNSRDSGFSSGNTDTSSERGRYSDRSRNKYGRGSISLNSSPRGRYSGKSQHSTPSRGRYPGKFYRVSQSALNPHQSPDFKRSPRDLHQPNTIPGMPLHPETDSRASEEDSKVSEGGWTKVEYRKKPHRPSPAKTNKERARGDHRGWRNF
Chain of Serine/threonine-protein kinase 38-like (Homo sapiens) (Q9Y2H1 2-464 limits assumed): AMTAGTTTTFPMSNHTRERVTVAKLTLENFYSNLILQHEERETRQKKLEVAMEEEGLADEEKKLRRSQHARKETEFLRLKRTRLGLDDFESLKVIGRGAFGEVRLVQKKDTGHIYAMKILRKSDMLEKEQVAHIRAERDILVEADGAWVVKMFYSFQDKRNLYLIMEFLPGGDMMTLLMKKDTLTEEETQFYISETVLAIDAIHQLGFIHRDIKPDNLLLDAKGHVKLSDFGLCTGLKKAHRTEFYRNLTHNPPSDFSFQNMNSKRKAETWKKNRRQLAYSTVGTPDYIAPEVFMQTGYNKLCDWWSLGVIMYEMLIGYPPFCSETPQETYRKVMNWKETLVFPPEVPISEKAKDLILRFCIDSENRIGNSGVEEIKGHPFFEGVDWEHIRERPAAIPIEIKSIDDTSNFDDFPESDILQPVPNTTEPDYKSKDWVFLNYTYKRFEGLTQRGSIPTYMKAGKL
Chain of Hepatocyte growth factor receptor (Homo sapiens), P08581 [M1250T] (P08581 whole entry M1250T): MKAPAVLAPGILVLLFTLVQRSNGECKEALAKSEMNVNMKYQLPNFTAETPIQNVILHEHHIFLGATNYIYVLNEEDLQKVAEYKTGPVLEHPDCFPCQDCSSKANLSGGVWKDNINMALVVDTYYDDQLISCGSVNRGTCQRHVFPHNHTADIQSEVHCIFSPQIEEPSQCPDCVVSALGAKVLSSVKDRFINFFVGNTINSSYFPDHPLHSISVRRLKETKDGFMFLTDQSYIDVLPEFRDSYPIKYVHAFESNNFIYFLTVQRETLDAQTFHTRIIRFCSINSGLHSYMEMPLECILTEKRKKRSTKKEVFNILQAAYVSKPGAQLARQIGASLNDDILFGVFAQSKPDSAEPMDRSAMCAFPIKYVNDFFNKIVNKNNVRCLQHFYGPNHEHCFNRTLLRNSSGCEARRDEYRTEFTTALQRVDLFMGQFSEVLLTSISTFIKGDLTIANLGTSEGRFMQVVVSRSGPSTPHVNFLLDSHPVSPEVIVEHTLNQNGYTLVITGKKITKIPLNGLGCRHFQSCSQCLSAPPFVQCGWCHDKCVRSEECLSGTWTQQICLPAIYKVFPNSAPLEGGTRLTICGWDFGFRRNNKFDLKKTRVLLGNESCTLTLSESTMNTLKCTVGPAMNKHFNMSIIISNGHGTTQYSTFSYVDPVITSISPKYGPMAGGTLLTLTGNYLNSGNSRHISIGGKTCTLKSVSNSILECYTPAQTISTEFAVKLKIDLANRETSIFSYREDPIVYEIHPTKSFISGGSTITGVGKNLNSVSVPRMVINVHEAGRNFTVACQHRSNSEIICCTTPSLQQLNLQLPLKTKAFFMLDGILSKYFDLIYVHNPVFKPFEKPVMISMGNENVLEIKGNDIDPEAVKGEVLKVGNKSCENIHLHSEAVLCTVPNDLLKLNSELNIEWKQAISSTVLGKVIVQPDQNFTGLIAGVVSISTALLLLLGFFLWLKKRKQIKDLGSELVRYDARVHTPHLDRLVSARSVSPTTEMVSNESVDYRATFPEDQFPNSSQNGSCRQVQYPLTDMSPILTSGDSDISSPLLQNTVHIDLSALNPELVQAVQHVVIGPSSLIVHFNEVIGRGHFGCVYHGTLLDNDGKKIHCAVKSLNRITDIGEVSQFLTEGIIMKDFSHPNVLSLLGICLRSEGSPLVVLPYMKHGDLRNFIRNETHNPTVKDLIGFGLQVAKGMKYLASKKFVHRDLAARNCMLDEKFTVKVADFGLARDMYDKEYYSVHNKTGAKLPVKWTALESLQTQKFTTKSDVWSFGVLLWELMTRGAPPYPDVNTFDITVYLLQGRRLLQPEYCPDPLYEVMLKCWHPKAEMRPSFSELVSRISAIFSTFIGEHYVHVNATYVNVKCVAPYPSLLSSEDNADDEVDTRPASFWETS
Chain of Dual specificity protein kinase CLK2 (P49760 whole entry, looked up): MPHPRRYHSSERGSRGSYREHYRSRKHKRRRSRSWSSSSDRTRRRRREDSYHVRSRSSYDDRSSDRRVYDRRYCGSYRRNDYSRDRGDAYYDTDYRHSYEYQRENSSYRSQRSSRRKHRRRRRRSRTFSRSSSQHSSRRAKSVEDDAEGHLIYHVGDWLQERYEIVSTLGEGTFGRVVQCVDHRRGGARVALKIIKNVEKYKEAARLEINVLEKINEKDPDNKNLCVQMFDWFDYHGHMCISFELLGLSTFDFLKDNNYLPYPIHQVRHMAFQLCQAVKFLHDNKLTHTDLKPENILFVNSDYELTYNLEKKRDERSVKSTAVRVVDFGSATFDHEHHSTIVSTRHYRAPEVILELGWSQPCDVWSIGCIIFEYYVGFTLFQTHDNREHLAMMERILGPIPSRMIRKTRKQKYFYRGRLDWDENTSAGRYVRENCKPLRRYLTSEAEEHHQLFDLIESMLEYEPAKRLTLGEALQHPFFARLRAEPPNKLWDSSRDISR

Structure (SMILES): CN(C)C/C=C/C(=O)Nc1ccc(C(=O)N2CCCC(Nc3ncc(Cl)c(-c4c[nH]c5ccccc45)n3)C2)cc1 (centres undefined)
- % of control [1]: 89%

- % of inhibition [2]: 3%
Structure (SMILES): CC[C@@H]1[C@H](F)C(=O)N[C@@H]1COc1nccc2cc(C(N)=O)c(OC)cc12 [ZIMLOVISERTIB]

- % of growth rate [3]: -24.1%
Structure (SMILES): CNCCN1CCC(c2cc(CN(C)C(=O)c3cccc(Oc4ccccc4)c3)ccn2)CC1

- % of inhibition [4]: -3.79%
Structure (SMILES): Cn1cc(-n2cnc3c(NCc4nc5cc(Cl)c(Cl)cc5[nH]4)nc(N4CCOCC4)nc32)cn1

Structure (SMILES): COCC(=O)NC/C=C/c1ccc2ncnc(Nc3ccc(Oc4ccc(C)nc4)c(C)c3)c2c1 [CP-724714]
- % of control [5]: 100%

Structure (SMILES): CN(C)CCOc1ccc(-c2nc(-c3ccncc3)c(-c3ccc4c(c3)CC/C4=N\O)[nH]2)cc1
- % of control [6]: 52%

Structure (SMILES): N#Cc1cccc(-c2c[nH]c3ncnc(N4CCOCC4)c23)c1
- % of inhibition [7]: 3%
- % of control [8]: 62%

Structure (SMILES): CNC(=O)Nc1ccc(-c2nc(N3CC4CCC(C3)O4)c3cnn(C4CCC5(CC4)OCCO5)c3n2)cc1
- % of inhibition [9]: 4%
